Experimental data: patent US12612384B2, “Heterocyclic CYP4A inhibitor compounds and compositions thereof” (MBD CO., LTD., priority 2021, dated 2026)
Where two headings read alike, the source gives them in different places.

Target: T1, CYP4A (Homo sapiens, UniProt Q02928)
T1 construct: purchased; host or cells: bacterial membranes ('bactosome')
T1 sequence (Q02928 5-519): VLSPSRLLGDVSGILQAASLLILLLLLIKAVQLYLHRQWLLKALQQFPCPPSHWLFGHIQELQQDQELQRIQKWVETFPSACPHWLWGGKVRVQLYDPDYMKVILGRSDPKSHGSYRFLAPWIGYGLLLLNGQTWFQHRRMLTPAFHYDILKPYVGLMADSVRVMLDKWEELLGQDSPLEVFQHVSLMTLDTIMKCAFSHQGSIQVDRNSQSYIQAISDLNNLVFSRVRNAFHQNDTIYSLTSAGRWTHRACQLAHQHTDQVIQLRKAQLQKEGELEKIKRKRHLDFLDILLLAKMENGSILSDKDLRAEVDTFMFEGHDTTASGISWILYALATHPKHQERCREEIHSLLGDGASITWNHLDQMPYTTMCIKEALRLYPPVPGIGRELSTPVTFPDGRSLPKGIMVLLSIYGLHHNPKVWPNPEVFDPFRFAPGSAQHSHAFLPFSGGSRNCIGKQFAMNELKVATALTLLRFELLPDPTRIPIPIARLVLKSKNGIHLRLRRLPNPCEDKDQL
Test: CYP4A enzyme assay (luminescence, Luciferin-ME)
Assay type: biochemical
Details: Compound concentration 5 μM
Protocol: The CYP4A inhibitory activity of the above compounds of the examples was measured. The reagents used in the experiment were commercially available, and were prepared and used when necessary. The device used for measuring activity was SpectraMax of MOLECULAR DEVICES.
CYP4A bactosome and the compounds to be evaluated (5 μM) were each diluted in assay buffer (100 mM KPO4, 0.1% BSA, 1 mM DTT) and mixed in a 384 well plate (white opaque polystyrene nontreated flat-bottom well), and reaction was carried out at room temperature for 15 minutes. To induce CYP4A reaction, 5 mM Luciferin-ME, NADPH Regeneration system (10× sol. A, 20× sol. B in assay buffer, Cat. Number: V865B, Promega) were sequentially added and mixed, and the reaction was carried out at room temperature for 30 minutes. Then, Luciferin Detection reagent was added thereto and reacted at room temperature for 15 minutes to stop the CYP4A reaction and induce a luminescence reaction. Finally, after measuring the luminescence value using a microplate reader, the inhibition of CYP4A activity by the compounds was evaluated by comparing the luminescence value from each well.

[1] = 70%-90%, read-out: % Inhibition 70%-90%
[2] = Greater than 90%, read-out: % Inhibition Greater than 90%
[3] = 50%-70%, read-out: % Inhibition 50%-70%
[4] = Less than 50%, read-out: % Inhibition Less than 50%

For `NCCn1ccnc1S(=O)(=O)N1CC[C@H](C(=O)N2CCN(c3ccnc4cc(F)ccc34)CC2)C1` [Example 150, (S)-(1-((1-(2-aminoethyl)-1H-imidazol-2-yl)sulfonyl)pyrrolidin-3-yl)(4-(7-fluoroquinolin-4-yl)piperazin-1-yl)methanone], the inhibition at 5 µM [1] was 70 to 90%.

`O=C(C1CCCN(S(=O)(=O)C2CCCCC2)C1)N1CCN(c2ccnc3ccccc23)CC1` (stereo not shown) [Example 121, (1-(cyclohexylsulfonyl)piperidin-3-yl)(4-(quinolin-4-yl)piperazin-1-yl)methanone] showed an inhibition at 5 µM [1] of 70 to 90%.

Work on `Cc1noc(C)c1S(=O)(=O)N1CCC(C(=O)N2CCN(c3ccnc4ccccc34)CC2)C1` (stereo not shown) [Example 39, (1-((3,5-dimethylisoxazol-4-yl)sulfonyl)pyrrolidin-3-yl)(4-(quinolin-4-yl)piperazin-1-yl)methanone] yielded an inhibition at 5 µM [2] of over 90%.

`COC(=O)CCS(=O)(=O)N1CCCC(C(=O)N2CCN(c3ccnc4cc(F)ccc34)CC2)C1` (stereo not shown) [Example 130, methyl 3-((3-(4-(7-fluoroquinolin-4-yl)piperazine-1-carbonyl)piperidin-1-yl)sulfonyl)propanoate] was tested, and the inhibition at 5 µM [3] was 50 to 70%.

For `O=C(c1ccncc1)N1CCCC(C(=O)N2CCN(c3cc(C(F)(F)F)nc4ccccc34)CC2)C1` (stereo not shown) [Example 98, (1-isonicotinoylpiperidin-3-yl)(4-(2-(trifluoromethyl)quinolin-4-yl)piperazin-1-yl)methanone], the inhibition at 5 µM [3] was 50 to 70%.

`CC(=O)Cn1cnc(S(=O)(=O)N2CC[C@H](C(=O)N3CCN(c4ccnc5cc(F)ccc45)CC3)C2)n1` [Example 142, (S)-1-(3-((3-(4-(7-fluoroquinolin-4-yl)piperazine-1-carbonyl)pyrrolidin-1-yl)sulfonyl)-1H-1,2,4-triazol-1-yl)propan-2-one] showed an inhibition at 5 µM [2] of over 90%.

`O=C(C1CCN(S(=O)(=O)c2ccc(-c3cnco3)cc2)C1)N1CCN(c2ccnc3cc(F)ccc23)CC1` (stereo not shown) [Example 15, (4-(7-fluoroquinolin-4-yl)piperazin-1-yl)(1-((4-(oxazol-5-yl)phenyl)sulfonyl)pyrrolidin-3-yl)methanone] gave an inhibition at 5 µM [2] of over 90%.

`O=C(C1CCCN(C(=O)C2CCCCC2)C1)N1CCN(c2cc(C(F)(F)F)nc3ccccc23)CC1` (stereo not shown) [Example 97, (1-(cyclohexylcarbonyl)piperidin-3-yl)(4-(2-(trifluoromethyl)quinolin-4-yl)piperazin-1-yl)methanone] gave an inhibition at 5 µM [4] of under 50%.

Work on `O=C([C@H]1CCN(S(=O)(=O)c2ncn[nH]2)C1)N1CCN(c2ccnc3c(F)cccc23)CC1` [Example 138, (S)-(1-((1H-1,2,4-triazol-5-yl)sulfonyl)pyrrolidin-3-yl)(4-(8-fluoroquinolin-4-yl)piperazin-1-yl)methanone] yielded an inhibition at 5 µM [1] of 70 to 90%.

Work on `Cc1nc(N2CCN(C(=O)C3CCCN(S(=O)(=O)c4ccc(F)cc4)C3)CC2)c2ccccc2n1` (stereo not shown) [Example 81, (1-(4-fluorophenylsulfonyl)piperidin-3-yl)(4-(2-methylquinazolin-4-yl)piperazin-1-yl)methanone] yielded an inhibition at 5 µM [3] of 50 to 70%.

`O=C(C1CCN(S(=O)(=O)c2ccc(-c3ccncc3)cc2)CC1)N1CCN(c2ccnc3cc(F)ccc23)CC1` [Example 57, (4-(7-fluoroquinolin-4-yl)piperazin-1-yl)(1-((4-(pyridin-4-yl)phenyl)sulfonyl)piperidin-4-yl)methanone] was tested, and the inhibition at 5 µM [2] was 0%.

Work on `O=C([C@@H]1CCN(S(=O)(=O)c2ncc[nH]2)C1)N1CCN(c2ccnc3cc(F)ccc23)CC1` [Example 147, (R)-(1-((1H-imidazol-2-yl)sulfonyl)pyrrolidin-3-yl)(4-(7-fluoroquinolin-4-yl)piperazin-1-yl)methanone] yielded an inhibition at 5 µM [2] of over 90%.

`COCCn1cnc(S(=O)(=O)N2CC[C@H](C(=O)N3CCN(c4ccnc5cc(F)ccc45)CC3)C2)n1` [Example 143, (S)-(4-(7-fluoroquinolin-4-yl)piperazin-1-yl)(1-((1-(2-methoxyethyl)-1H-1,2,4-triazol-3-yl)sulfonyl)pyrrolidin-3-yl)methanone] showed an inhibition at 5 µM [2] of over 90%.

With `CC(=O)Nc1ccc(S(=O)(=O)N2CC(C(=O)N3CCN(c4ccnc5cc(F)ccc45)CC3)C2)cc1` [Example 65, N-(4-((3-(4-(7-fluoroquinolin-4-yl)piperazine-1-carbonyl)azetidin-1-yl)sulfonyl)phenyl)acetamide] the inhibition at 5 µM [2] was over 90%.

`Cc1ccc(S(=O)(=O)N2CCCC(C(=O)N3CCN(c4nc(C)nc5ccccc45)CC3)C2)cc1` (stereo not shown) [Example 80, (4-(2-methylquinazolin-4-yl)piperazin-1-yl)(1-tosylpiperidin-3-yl)methanone] gave an inhibition at 5 µM [4] of under 50%.

Molecule `CC(=O)Nc1ccc(S(=O)(=O)N2CC[C@@H](C(=O)N3CCN(c4ccnc5cc(F)ccc45)CC3)C2)cc1` [Example 2, (R)—N-(4-((3-(4-(7-fluoroquinolin-4-yl)piperazine-1-carbonyl)pyrrolidin-1-yl)sulfonyl)phenyl)acetamide] has an inhibition at 5 µM [2] of over 90%.

`O=C(c1ccncc1)N1CCCC(C(=O)N2CCN(c3ccnc4ccccc34)CC2)C1` (stereo not shown) [Example 115, (1-isonicotinoylpiperidin-3-yl)(4-(quinolin-4-yl)piperazin-1-yl)methanone] was tested, and the inhibition at 5 µM [1] was 70 to 90%.

In the case of `COC(=O)CCS(=O)(=O)N1CCCC(C(=O)N2CCN(c3ccnc4ccccc34)CC2)C1` (stereo not shown) [Example 132, methyl 3-((3-(4-(quinolin-4-yl)piperazine-1-carbonyl)piperidin-1-yl)sulfonyl)propanoate], the inhibition at 5 µM [3] was 50 to 70%.

Work on `Cc1nc(C)c(S(=O)(=O)N2CCC(C(=O)N3CCN(c4ccnc5ccccc45)CC3)C2)s1` (stereo not shown) [Example 40, (1-((2,4-dimethylthiazol-5-yl)sulfonyl)pyrrolidin-3-yl)(4-(quinolin-4-yl)piperazin-1-yl)methanone] yielded an inhibition at 5 µM [2] of over 90%.

In the case of `COc1ccc2c(N3CCN(C(=O)C4CCCN(C(=O)C5CCCCC5)C4)CC3)ccnc2c1` (stereo not shown) [Example 92, (4-(7-methoxyquinolin-4-yl)piperazin-1-yl)(1-(cyclohexylcarbonyl)piperidin-3-yl)methanone], the inhibition at 5 µM [3] was 50 to 70%.

With `O=C(C1CCN(S(=O)(=O)c2ncc[nH]2)C1)N1CCN(c2ccnc3ccccc23)CC1` (stereo not shown) [Example 42, (1-((1H-imidazol-2-yl)sulfonyl)pyrrolidin-3-yl)(4-(quinolin-4-yl)piperazin-1-yl)methanone] the inhibition at 5 µM [2] was over 90%.

In the case of `O=C([C@H]1CCN(S(=O)(=O)c2nccn2CCO)C1)N1CCN(c2ccnc3cc(F)ccc23)CC1` [Example 148, (S)-(4-(7-fluoroquinolin-4-yl)piperazin-1-yl)(1-((1-(2-hydroxyethyl)-1H-imidazol-2-yl)sulfonyl)pyrrolidin-3-yl)methanone], the inhibition at 5 µM [2] was over 90%.

`O=C(c1ccccc1)N1CCCC(C(=O)N2CCN(c3ccnc4cc(Cl)ccc34)CC2)C1` (stereo not shown) [Example 85, (4-(7-chloroquinolin-4-yl)piperazin-1-yl)(1-(phenylcarbonyl)piperidin-3-yl)methanone] was tested, and the inhibition at 5 µM [1] was 70 to 90%.

In the case of `O=C(C1CCN(S(=O)(=O)c2ncn[nH]2)CC1)N1CCN(c2ccnc3cc(F)ccc23)CC1` [Example 135, (1-((1H-1,2,4-triazol-5-yl)sulfonyl)piperidin-4-yl)(4-(7-fluoroquinolin-4-yl)piperazin-1-yl)methanone], the inhibition at 5 µM [1] was 70 to 90%.

`CC(=O)Nc1ccc(S(=O)(=O)N2CCCC(C(=O)N3CCN(c4ccnc5cc(F)ccc45)CC3)C2)cn1` (stereo not shown) [Example 60, N-(5-((3-(4-(7-fluoroquinolin-4-yl)piperazine-1-carbonyl)piperidin-1-yl)sulfonyl)pyridin-2-yl)acetamide] was tested, and the inhibition at 5 µM [2] was over 90%.
